In US20040067955A1, “Pyridazinone compound and pharmaceutical use thereof” (Fujisawa Pharmaceutical Co. Ltd., priority 2002, published 2004):

Columns and labels:
human A2a receptor = human A2a receptor (Homo sapiens, UniProt P29274); test: Adenosine antagonistic activity: radioligand binding with [3H]CGS 21680 (20 nM)
Protocol: (§1) The adenosine antagonistic activity [Ki(nM)] of the test compound was examined by radioligand binding techniques using 8-cyclopentyl-1,3-dipropylxanthine, [dipropyl-2,3-^3H (N)] ([^3H]DPCPX, 4.5 nM) for human A1 receptor and [^3H]CGS 21680 (20 nM) for human A2a receptor.

ddY mice = test: Anticatalepsy activity in mouse (haloperidol-induced catalepsy, bar test); assay type: in vivo; details: test compound 3.2 mg/kg orally, ddY mice (n=7); haloperidol 0.32 mg/kg i.p. 30 min later; measured 30 min after injection
Protocol: The test compound (3.2 mg/kg) was administered orally with ddY mice (n=7). Then, haloperidol (0.32 mg/kg) was injected intraperitoneally 30 min. after the administration of the compound. Thirty min. After the injection, the cataleptic responses of mice were measured. The forelimbs of each mouse were placed on a 3 cm high, 3 mm wide horizontal bar, and the duration of cataleptic posture was measured for up to 30 sec.

human A1 receptor = target: T1, human A1 receptor (Homo sapiens, UniProt P30542); test: Adenosine antagonistic activity: radioligand binding with [3H]DPCPX (4.5 nM)
T1 sequence (P30542 1-326): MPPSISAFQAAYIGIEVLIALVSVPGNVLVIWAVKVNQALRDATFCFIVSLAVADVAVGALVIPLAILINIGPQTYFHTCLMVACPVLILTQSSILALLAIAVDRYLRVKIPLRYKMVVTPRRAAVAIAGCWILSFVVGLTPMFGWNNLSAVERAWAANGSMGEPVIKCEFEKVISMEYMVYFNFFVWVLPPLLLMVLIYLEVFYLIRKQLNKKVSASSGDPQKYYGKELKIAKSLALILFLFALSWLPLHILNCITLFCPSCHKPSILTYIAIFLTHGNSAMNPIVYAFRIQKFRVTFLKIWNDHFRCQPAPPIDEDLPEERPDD
Protocol: as §1

Sequence of human A2a receptor (P29274 whole entry): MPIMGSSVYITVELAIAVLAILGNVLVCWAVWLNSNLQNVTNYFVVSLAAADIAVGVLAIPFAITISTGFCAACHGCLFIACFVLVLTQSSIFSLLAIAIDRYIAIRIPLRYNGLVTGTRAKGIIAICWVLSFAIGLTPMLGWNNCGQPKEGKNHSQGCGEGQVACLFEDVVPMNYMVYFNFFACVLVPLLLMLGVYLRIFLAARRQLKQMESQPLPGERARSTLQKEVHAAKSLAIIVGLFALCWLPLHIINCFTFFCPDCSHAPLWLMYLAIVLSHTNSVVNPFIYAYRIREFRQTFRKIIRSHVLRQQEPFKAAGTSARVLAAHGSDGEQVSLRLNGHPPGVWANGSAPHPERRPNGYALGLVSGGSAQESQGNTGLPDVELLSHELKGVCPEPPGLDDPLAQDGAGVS

| Ki (human A2a receptor) | Ki (human A1 receptor) | melting point | SMILES | Manifestation rate of catalepsy (number of mouse) (ddY mice) |
| --- | --- | --- | --- | --- |
| 0.65 nM | 0.56 nM | 197 to 198 °C | CC(C)n1nc(-c2cc(C#N)c(N)nc2-c2ccccc2)ccc1=O [Example 3, 2-Amino-5-(1-isopropyl-6-oxo-1,6-dihydro-3-pyridazinyl)-6-phenylnicotinonitrile] | 0/7 |
| 1.24 nM | 0.31 nM | 207 to 208 °C | CC(C)n1nc(-c2cc(NC(=O)c3ccccc3)cnc2-c2ccccc2)ccc1=O [Example 27, N-[5-(1-isopropyl-6-oxo-1,6-dihydro-3-pyridazinyl)-6-phenyl-3-pyridyl]benzamide] | 0/7 |
| 2.7 nM | 0.46 nM | 212 to 213 °C | CC(C)n1nc(-c2cc(-c3ccn[nH]3)cnc2-c2ccccc2)ccc1=O [Example 24, 2-isopropyl-6-[2-phenyl-5-(pyrazol-5-yl)-3-pyridyl]-3(2H)-pyridazinone] | 0/7 |
| 2.06 nM | 1.99 nM |  | CC(C)n1cc(-c2cc(Cl)c(N)nc2-c2ccccc2)cc(Cl)c1=O [Example 119, 6′-Amino-5,5′-dichloro-1-isopropyl-2′-phenyl-3,3′-bipyridin-6(1H)-one] | 0/7 |
